Reference: ChEMBL document CHEMBL3627608, “Crystal structures of human RIP2 kinase catalytic domain complexed with ATP-competitive inhibitors: Foundations for understanding inhibitor selectivity” (Bioorg Med Chem, 2015)

Legend:
[1] = biological target: BDNF/NT-3 growth factors receptor (Homo sapiens) (UniProt Q16620); test: Inhibition of TRKB (unknown origin) at 10 uM after 120 mins P33 radiolabeled kinase activity assay
[2] = biological target: Serine/threonine-protein kinase 32C (Homo sapiens) (UniProt Q86UX6); test: Inhibition of STK32C (unknown origin) at 10 uM after 120 mins P33 radiolabeled kinase activity assay
[3] = biological target: T1, Kinase suppressor of Ras 2 (Homo sapiens) (UniProt Q6VAB6); test: Inhibition of KSR2 (unknown origin) at 10 uM after 120 mins P33 radiolabeled kinase activity assay
T1 sequence (whole entry): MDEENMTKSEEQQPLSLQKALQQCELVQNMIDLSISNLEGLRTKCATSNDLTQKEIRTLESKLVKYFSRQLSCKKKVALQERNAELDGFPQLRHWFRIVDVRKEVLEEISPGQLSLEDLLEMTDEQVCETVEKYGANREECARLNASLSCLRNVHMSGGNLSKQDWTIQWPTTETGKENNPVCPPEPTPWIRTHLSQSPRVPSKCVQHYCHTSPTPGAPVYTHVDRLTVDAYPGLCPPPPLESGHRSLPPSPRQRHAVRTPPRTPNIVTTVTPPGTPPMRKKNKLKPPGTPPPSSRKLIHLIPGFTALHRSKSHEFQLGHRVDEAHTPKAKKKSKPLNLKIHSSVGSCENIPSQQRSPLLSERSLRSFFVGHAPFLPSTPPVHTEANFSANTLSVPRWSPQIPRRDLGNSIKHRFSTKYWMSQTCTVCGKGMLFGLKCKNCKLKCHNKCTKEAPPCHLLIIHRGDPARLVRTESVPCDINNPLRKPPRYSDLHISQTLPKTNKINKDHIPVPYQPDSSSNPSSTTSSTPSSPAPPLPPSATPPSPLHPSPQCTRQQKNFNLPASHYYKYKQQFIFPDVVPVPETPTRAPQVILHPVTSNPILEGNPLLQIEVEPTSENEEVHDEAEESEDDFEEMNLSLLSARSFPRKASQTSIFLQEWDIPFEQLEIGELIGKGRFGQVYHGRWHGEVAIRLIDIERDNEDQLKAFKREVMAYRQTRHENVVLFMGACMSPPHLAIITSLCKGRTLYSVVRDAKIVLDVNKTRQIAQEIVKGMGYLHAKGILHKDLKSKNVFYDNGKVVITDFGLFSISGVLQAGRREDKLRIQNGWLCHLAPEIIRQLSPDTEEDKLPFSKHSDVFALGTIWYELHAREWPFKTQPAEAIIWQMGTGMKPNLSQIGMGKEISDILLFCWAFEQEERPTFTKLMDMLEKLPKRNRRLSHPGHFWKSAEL

[4] = biological target: G protein-coupled receptor kinase 6 (Homo sapiens) (UniProt P43250); test: Inhibition of GRK6 (unknown origin) at 10 uM after 120 mins P33 radiolabeled kinase activity assay
[5] = biological target: T2, Phosphorylase b kinase gamma catalytic chain, liver/testis isoform (Homo sapiens) (UniProt P15735); test: Inhibition of PHKg2 (unknown origin) at 10 uM after 120 mins P33 radiolabeled kinase activity assay
T2 sequence (whole entry): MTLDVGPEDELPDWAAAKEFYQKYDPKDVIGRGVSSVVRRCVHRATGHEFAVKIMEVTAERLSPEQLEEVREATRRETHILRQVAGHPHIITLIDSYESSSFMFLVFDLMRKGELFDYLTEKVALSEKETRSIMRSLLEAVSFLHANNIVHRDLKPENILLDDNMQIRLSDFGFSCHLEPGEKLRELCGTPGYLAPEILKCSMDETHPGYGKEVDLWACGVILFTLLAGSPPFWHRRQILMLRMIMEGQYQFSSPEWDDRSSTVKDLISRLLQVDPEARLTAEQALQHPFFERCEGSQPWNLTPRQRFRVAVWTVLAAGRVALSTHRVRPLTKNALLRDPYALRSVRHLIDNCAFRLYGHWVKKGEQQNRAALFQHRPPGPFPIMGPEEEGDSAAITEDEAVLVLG

[6] = biological target: Non-receptor tyrosine-protein kinase TYK2 (Homo sapiens) (UniProt P29597); test: Inhibition of TYK2 (unknown origin) at 10 uM after 120 mins P33 radiolabeled kinase activity assay
[7] = biological target: Homeodomain-interacting protein kinase 2 (Homo sapiens) (UniProt Q9H2X6); test: Inhibition of HIPK2 (unknown origin) at 10 uM after 120 mins P33 radiolabeled kinase activity assay
[8] = biological target: STE20/SPS1-related proline-alanine-rich protein kinase (Homo sapiens) (UniProt Q9UEW8); test: Inhibition of STK39 (unknown origin) at 10 uM after 120 mins P33 radiolabeled kinase activity assay
[9] = biological target: Serine/threonine-protein kinase PLK1 (Homo sapiens) (UniProt P53350); test: Inhibition of PLK1 (unknown origin) at 10 uM after 120 mins P33 radiolabeled kinase activity assay
[10] = biological target: Dual specificity protein kinase CLK2 (Homo sapiens) (UniProt P49760); test: Inhibition of CLK2 (unknown origin) at 10 uM after 120 mins P33 radiolabeled kinase activity assay
[11] = biological target: Protein-tyrosine kinase 2-beta (Homo sapiens) (UniProt Q14289); test: Inhibition of PYK2 (unknown origin) at 10 uM after 120 mins P33 radiolabeled kinase activity assay
[12] = biological target: LIM domain kinase 1 (Homo sapiens) (UniProt P53667); test: Inhibition of LIMK1 (unknown origin) at 10 uM after 120 mins P33 radiolabeled kinase activity assay
[13] = biological target: Receptor-interacting serine/threonine-protein kinase 2 (Homo sapiens, UniProt O43353); test: Inhibition of full-length FLAG-6His-TEV tagged human RIP2 expressed in Sf9 cells assessed as residence time by fluorescent polarization assay
[14] = biological target: Ribosomal protein S6 kinase alpha-3 (Homo sapiens) (UniProt P51812); test: Inhibition of RSK2 (unknown origin) at 10 uM after 120 mins P33 radiolabeled kinase activity assay
[15] = biological target: Tyrosine-protein kinase FRK (Homo sapiens) (UniProt P42685); test: Inhibition of FRK (unknown origin) at 10 uM after 120 mins P33 radiolabeled kinase activity assay
[16] = biological target: MAP kinase-activated protein kinase 3 (Homo sapiens) (UniProt Q16644); test: Inhibition of MAPKAPK3 (unknown origin) at 10 uM after 120 mins P33 radiolabeled kinase activity assay
[17] = biological target: Serine/threonine-protein kinase MRCK beta (Homo sapiens) (UniProt Q9Y5S2); test: Inhibition of MRCKbeta (unknown origin) at 10 uM after 120 mins P33 radiolabeled kinase activity assay
[18] = biological target: Casein kinase I isoform gamma-1 (Homo sapiens) (UniProt Q9HCP0); test: Inhibition of CK1gamma1 (unknown origin) at 10 uM after 120 mins P33 radiolabeled kinase activity assay
[19] = biological target: Hepatocyte growth factor receptor (Homo sapiens) (UniProt P08581); test: Inhibition of c-MET (unknown origin) at 10 uM after 120 mins P33 radiolabeled kinase activity assay

Chain of Serine/threonine-protein kinase PLK1 (Homo sapiens) (P53350 whole entry): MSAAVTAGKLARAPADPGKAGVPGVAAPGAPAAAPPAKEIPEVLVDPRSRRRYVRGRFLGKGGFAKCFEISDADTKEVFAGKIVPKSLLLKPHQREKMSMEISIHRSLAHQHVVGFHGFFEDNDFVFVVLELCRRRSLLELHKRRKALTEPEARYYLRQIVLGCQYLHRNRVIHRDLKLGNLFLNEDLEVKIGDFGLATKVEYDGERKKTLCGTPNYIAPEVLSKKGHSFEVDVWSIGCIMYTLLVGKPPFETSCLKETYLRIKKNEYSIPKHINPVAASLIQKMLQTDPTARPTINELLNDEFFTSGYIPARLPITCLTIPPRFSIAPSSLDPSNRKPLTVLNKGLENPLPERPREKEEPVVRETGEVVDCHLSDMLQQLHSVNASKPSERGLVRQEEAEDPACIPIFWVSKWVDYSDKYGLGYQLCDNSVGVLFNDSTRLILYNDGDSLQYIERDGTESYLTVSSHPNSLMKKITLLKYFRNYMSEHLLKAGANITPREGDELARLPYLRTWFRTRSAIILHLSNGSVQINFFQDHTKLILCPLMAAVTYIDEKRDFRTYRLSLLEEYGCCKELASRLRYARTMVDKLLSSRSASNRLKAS
Chain of Protein-tyrosine kinase 2-beta (Homo sapiens) (Q14289 whole entry, looked up, the tested form may be a part): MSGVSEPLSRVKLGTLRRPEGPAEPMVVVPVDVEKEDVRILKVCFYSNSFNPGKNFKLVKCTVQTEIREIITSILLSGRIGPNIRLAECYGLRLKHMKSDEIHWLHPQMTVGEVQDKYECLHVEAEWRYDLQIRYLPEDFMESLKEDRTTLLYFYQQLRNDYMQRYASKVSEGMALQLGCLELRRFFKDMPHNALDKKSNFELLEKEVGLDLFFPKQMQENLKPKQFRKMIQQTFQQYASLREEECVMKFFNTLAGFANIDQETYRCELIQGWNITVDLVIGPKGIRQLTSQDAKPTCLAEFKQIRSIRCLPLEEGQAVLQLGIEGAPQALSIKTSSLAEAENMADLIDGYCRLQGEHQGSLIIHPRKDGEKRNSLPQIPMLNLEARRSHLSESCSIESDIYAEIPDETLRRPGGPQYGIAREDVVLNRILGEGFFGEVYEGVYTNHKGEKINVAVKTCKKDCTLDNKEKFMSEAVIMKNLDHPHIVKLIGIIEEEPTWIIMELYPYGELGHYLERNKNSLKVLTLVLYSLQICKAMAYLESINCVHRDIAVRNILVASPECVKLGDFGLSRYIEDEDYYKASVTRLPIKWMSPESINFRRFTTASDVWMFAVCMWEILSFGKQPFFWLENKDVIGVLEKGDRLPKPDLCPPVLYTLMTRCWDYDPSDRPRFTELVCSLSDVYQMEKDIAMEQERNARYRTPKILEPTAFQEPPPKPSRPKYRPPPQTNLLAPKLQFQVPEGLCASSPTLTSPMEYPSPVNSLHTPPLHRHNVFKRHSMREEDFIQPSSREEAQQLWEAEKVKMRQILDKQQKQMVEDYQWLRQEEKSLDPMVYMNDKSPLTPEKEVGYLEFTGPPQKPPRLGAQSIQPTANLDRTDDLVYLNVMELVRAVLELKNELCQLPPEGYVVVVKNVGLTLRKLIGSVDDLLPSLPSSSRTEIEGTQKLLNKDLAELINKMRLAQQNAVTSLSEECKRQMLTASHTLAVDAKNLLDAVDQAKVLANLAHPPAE
Chain of Tyrosine-protein kinase FRK (Homo sapiens) (P42685 whole entry): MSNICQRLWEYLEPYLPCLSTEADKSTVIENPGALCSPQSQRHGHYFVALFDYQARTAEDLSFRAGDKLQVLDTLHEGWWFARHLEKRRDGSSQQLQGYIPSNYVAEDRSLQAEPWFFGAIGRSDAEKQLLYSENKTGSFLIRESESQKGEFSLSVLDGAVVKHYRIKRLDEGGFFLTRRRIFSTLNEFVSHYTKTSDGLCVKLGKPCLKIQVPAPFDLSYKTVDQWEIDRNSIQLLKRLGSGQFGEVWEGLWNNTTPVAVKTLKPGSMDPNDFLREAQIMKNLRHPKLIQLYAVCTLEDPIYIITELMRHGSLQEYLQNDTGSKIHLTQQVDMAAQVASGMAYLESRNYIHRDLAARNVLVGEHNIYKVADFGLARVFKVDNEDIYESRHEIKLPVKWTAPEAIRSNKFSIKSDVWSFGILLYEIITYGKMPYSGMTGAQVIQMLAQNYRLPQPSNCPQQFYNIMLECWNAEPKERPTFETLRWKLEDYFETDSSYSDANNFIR
Chain of G protein-coupled receptor kinase 6 (Homo sapiens) (P43250 whole entry, looked up, canonical isoform): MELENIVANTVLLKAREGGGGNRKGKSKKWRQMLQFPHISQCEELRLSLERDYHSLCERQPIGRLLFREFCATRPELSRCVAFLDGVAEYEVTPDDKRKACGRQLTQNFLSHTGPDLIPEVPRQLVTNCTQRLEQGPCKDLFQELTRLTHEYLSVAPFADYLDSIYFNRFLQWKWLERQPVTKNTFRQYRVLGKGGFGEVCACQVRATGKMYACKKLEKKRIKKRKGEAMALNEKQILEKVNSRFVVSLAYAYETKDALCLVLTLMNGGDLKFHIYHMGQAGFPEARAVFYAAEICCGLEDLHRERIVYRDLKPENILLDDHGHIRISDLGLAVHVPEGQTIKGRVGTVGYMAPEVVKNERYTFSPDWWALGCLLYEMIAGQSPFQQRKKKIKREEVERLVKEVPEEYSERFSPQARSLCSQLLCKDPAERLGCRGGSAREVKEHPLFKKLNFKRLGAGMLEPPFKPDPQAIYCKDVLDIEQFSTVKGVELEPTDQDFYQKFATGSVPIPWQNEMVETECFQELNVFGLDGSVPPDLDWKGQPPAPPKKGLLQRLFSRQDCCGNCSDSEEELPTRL
Chain of Serine/threonine-protein kinase MRCK beta (Homo sapiens) (Q9Y5S2 whole entry, canonical isoform): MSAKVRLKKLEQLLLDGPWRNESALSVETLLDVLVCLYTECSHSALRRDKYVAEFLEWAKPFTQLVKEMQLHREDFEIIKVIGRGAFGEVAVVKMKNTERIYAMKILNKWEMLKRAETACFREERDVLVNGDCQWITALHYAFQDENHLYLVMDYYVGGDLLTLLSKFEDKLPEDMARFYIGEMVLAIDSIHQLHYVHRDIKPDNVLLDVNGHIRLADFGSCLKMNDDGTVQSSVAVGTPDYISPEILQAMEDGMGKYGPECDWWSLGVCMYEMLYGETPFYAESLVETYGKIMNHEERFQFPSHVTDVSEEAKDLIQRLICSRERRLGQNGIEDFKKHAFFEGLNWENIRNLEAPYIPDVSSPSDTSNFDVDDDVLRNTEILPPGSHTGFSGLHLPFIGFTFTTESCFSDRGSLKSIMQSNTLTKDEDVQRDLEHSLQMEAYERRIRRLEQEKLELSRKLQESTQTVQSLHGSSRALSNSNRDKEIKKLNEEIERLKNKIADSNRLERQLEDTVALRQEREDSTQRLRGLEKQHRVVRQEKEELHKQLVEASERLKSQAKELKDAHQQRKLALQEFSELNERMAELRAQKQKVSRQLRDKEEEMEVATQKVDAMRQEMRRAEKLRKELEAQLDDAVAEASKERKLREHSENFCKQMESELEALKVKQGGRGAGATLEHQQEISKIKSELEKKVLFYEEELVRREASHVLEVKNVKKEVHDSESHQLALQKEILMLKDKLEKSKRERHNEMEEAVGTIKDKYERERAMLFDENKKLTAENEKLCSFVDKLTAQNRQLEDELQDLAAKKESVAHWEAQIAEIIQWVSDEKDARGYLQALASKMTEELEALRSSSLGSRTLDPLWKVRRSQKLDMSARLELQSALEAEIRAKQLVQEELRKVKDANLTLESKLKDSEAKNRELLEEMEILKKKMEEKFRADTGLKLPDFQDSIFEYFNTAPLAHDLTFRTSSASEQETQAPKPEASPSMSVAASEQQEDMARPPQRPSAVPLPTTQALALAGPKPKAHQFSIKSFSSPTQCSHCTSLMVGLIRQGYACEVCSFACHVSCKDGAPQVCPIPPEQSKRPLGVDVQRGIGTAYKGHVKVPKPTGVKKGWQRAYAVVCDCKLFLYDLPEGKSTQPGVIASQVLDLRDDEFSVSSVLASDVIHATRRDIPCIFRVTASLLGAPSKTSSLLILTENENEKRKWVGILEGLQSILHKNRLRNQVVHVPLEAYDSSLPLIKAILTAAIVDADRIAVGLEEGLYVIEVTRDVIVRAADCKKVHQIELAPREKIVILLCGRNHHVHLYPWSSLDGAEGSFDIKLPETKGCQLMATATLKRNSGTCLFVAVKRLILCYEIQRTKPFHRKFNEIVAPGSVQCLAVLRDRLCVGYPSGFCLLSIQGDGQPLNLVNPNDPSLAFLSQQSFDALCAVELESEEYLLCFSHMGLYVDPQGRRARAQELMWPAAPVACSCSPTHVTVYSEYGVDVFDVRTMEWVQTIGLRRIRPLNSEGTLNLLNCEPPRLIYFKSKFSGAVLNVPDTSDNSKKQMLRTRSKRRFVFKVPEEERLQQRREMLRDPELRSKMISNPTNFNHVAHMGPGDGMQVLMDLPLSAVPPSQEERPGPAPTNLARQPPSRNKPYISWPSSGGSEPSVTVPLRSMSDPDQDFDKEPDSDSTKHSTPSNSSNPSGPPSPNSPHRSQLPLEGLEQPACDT
Chain of Receptor-interacting serine/threonine-protein kinase 2 (O43353 whole entry): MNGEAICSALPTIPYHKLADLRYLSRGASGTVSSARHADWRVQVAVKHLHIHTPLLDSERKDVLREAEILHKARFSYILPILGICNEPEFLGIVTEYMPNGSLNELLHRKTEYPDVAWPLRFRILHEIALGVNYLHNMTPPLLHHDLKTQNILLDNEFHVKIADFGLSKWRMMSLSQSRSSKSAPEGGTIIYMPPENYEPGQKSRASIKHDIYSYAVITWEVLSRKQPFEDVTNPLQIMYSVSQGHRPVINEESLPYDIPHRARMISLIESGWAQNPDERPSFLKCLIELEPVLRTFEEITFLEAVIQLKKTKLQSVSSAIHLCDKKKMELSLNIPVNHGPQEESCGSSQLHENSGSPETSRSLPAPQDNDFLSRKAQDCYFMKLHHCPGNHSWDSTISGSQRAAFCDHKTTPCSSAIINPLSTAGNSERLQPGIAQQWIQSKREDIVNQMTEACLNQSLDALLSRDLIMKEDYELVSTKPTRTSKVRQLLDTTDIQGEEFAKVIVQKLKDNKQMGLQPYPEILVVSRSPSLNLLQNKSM

Compound: CS(=O)(=O)c1cccc(Nc2nccc(-c3sc(N4CCOCC4)nc3-c3cccc(NS(=O)(=O)c4c(F)cccc4F)c3)n2)c1
- inhibition [1]: 61.5%
- inhibition [2]: 8.37%
- inhibition [3]: 1.08%
- inhibition [4]: -5.6%
- inhibition [5]: 5.98%
- inhibition [6]: 54.8%
- inhibition [7]: 91.4%
- inhibition [8]: 28.6%
- inhibition [9]: 5.27%
- inhibition [10]: 24.5%
- inhibition [11]: 23.7%
- inhibition [12]: 99.2%
- T1/2 [13]: 1.32 h
- inhibition [14]: 66.8%
- inhibition [15]: 96.9%
- inhibition [16]: -3.69%
- inhibition [17]: 14.4%
- inhibition [18]: 35.1%
- inhibition [19]: 16.8%

Compound: COCCNC(=O)c1ccc2c(c1)nc(-c1cnc(-c3ccc(Cl)cc3)[nH]1)n2CCOC
- inhibition [1]: 4.41%
- inhibition [2]: 13%
- inhibition [3]: 3.38%
- inhibition [4]: -7.62%
- inhibition [5]: 3.38%
- inhibition [6]: 13.2%
- inhibition [7]: -4.82%
- inhibition [8]: 6.77%
- inhibition [9]: -0.52%
- inhibition [10]: 7.06%
- inhibition [11]: 7.67%
- inhibition [12]: 8.6%
- T1/2 [13]: 0.00167 h
- inhibition [14]: 5.36%
- inhibition [15]: 54.5%
- inhibition [16]: 0.16%
- inhibition [17]: 11.1%
- inhibition [18]: 7.23%
- inhibition [19]: 10.9%

Compound: CC(C)(C)c1cc(NC(=O)Nc2ccc(Oc3ccncc3)cc2)no1
- inhibition [1]: 96.7%
- inhibition [2]: 12.9%
- inhibition [3]: 3.41%
- inhibition [4]: -8.96%
- inhibition [5]: -3.81%
- inhibition [6]: 9.99%
- inhibition [7]: 18.1%
- inhibition [8]: 52.4%
- inhibition [9]: 1.09%
- inhibition [10]: 28.8%
- inhibition [11]: 16.5%
- inhibition [12]: 75.6%
- T1/2 [13]: 1.42 h
- inhibition [14]: 46.3%
- inhibition [15]: 99%
- inhibition [16]: -4.91%
- inhibition [17]: 16.5%
- inhibition [18]: 6.78%
- inhibition [19]: 92.4%
